In assay [1] the target is NLRP3 inflammasome (Mus musculus, UniProt Q8R4B8). In words: Inhibition of IL-1β release, NLRP3 inflammasome activation assay in BMDM. The assay is classed as cell-based. On the procedure:
The following assays can be used to determine inhibitory activity of test compounds on the NLRP3 inflammasome using common stimuli such as adenosine triphosphate, nigericin, LeuLeu-OMe or monosodium urate crystals (MSU).
Mouse bone marrow-derived macrophages (BMDM) were derived from bone marrow progenitors isolated from the femurs and tibias of C57BL/6 mice.
BMDM are seeded at 1×10^5/ml. The following day the overnight medium is replaced and cells are stimulated with Ultrapure lipopolysaccharide from Escherichia coli K12 strain (InvivoGen) for 3 h. Medium is removed and replaced with serum free medium (SFM) containing test compound 30 min prior to NLRP3 stimulation. […] ATP can be sourced from Sigma Aldrich, nigericin and MSU from Invivogen and LeuLeu-Ome from Chem-Impex International.
For ELISA and cell death assays cells are seeded in 96 well plates. Supernatants are removed and analysed using ELISA kits according to the manufacturer's instructions (DuoSet® R&D Systems, ReadySetGo!® eBioscience, BD OptEIA™, or Perkin Elmer AlphaLISA®). Cell death is assessed by measurement of LDH release relative to a 100% cell lysis control using the CytoTox96® non-radioactive cytotoxicity assay (Promega).

Assay [2] concerns the target NLRP3 inflammasome (Homo sapiens, UniProt Q96P20). Kind of assay: Inhibition of IL-1β release, NLRP3 inflammasome activation assay in HMDM. The format is cell-based. The method, boiled down: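 Primary human monocyte-derived macrophages from CD14+ buffy-coat monocytes, seeded at 1×10^5/ml. Compound added in serum-free medium 30 min before NLRP3 stimulation (ATP, nigericin, LeuLeu-OMe or MSU). Cytokine in supernatants measured by ELISA or AlphaLISA; cell death by LDH release relative to full lysis.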

Where [3] appears, read: inhibition of IL-1β release, class symbols, read-out: Avg. IL-1β IC50 Murine BMDM.
Setting [4] is: inhibition of IL-1β release, class symbols, read-out: Avg. IL-1β IC50 HMDM.
[5] abbreviates: inhibition of IL-1β release, numeric bounds, read-out: Avg. IL-1β IC50 Murine BMDM.
[6] abbreviates: commercial compounds (Table 9), read-out: BMDM IC50 vs NLRP3.
[7] abbreviates: commercial compounds (Table 9), read-out: HMDM IC50 vs NLRP3.
Where [8] appears, read: select compounds of the first aspect (Table 10), read-out: BMDM IC50 vs NLRP3.

Where two headings read alike, the source gives them in different places. Bounds are passed on as bounds.

Sequence of NLRP3 inflammasome (Homo sapiens, UniProt Q96P20) (Q96P20 whole entry): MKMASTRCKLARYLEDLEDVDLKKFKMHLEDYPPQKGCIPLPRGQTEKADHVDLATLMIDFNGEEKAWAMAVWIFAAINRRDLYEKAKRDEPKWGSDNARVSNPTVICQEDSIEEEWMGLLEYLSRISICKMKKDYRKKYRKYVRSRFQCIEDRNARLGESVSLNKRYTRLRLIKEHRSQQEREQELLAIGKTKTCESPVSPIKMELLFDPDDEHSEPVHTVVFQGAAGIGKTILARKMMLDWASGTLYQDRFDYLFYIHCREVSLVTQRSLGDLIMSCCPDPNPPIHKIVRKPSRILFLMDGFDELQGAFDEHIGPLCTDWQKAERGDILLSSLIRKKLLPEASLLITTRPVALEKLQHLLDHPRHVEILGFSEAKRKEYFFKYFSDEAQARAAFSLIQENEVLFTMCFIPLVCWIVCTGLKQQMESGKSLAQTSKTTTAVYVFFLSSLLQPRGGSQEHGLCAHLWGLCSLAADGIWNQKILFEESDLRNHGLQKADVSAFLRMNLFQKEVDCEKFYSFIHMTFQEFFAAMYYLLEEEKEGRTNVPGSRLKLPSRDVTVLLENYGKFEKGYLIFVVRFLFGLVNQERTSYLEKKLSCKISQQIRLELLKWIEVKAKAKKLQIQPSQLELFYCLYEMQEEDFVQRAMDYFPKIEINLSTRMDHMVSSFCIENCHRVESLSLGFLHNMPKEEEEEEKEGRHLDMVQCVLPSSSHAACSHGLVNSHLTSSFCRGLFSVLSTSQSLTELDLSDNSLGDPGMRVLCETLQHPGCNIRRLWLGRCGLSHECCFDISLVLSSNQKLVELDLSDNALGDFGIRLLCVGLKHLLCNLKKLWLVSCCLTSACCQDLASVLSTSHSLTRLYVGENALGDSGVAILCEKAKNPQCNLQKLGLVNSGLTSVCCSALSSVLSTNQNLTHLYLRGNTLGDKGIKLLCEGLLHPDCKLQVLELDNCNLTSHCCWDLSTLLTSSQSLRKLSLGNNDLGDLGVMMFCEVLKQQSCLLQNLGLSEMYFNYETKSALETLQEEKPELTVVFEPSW
Sequence of NLRP3 inflammasome (Mus musculus, UniProt Q8R4B8) (Q8R4B8 whole entry): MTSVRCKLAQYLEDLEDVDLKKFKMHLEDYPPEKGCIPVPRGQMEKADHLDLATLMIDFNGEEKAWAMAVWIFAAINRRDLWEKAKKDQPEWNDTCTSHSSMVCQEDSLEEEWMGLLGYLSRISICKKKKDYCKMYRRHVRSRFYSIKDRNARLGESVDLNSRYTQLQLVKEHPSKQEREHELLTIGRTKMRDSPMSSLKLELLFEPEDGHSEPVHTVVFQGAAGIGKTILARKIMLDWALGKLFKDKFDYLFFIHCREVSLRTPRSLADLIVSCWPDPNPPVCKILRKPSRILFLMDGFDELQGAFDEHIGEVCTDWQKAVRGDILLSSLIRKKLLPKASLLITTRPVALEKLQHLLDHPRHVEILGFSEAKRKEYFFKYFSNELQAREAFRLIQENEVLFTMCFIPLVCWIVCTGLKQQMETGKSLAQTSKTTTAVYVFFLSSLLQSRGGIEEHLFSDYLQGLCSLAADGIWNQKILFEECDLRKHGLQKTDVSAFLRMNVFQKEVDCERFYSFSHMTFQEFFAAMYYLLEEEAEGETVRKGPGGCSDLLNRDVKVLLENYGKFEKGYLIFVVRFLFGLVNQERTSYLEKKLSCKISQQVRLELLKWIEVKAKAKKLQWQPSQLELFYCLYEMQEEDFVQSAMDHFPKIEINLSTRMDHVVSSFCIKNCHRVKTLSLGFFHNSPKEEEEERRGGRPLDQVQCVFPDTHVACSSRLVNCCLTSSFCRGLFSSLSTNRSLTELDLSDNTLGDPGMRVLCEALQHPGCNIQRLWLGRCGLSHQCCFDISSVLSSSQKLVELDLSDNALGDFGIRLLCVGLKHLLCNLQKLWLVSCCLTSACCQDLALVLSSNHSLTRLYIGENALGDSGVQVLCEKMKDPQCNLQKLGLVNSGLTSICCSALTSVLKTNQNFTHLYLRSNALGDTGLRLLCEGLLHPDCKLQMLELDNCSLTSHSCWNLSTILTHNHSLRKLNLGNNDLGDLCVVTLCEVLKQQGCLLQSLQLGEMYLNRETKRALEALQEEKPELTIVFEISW

In the case of `COc1ccc(Cl)cc1C(=O)NCCc1ccc(S(=O)(=O)NC(=O)Nc2c3c(cc4c2CCC4)CCC3)cc1`, the 50% inhibitory concentration (IC50) on NLRP3 inflammasome [1] (setting [3]) and on NLRP3 inflammasome [2] (setting [4]) was less than 1 µM each time. In the case of `CCC1=C(C)CN(C(=O)NCCc2ccc(S(=O)(=O)NC(=O)Nc3c4c(cc5c3CCC5)CCC4)cc2)C1=O` [3-Ethyl-N-(4-(N-((1,2,3,5,6,7-hexahydro-s-indacen-4-yl)carbamoyl)sulfamoyl)phenethyl)-4-methyl-2-oxo-2,5-dihydro-1H-pyrrole-1-carboxamide], the IC50 at NLRP3 inflammasome [1] (setting [3]) and on NLRP3 inflammasome [2] (setting [4]) was less than 1 µM in each case. As to `COc1ccc2c(c1)C(=O)N(CCc1ccc(S(N)(=O)=O)cc1)C(=O)C2(C)C` [4-(2-(7-methoxy-4,4-dimethyl-1,3-dioxo-3,4-dihydroisoquinolin-2(1H)-yl)ethyl)benzenesulfonamide, reference compound], the IC50 – broadly, the concentration needed to halve the response being measured – on NLRP3 inflammasome [1] (setting [5]) is more than 10 µM; on NLRP3 inflammasome [2] (inhibition of IL-1β release, numeric bounds, read-out: Avg. IL-1β IC50 HMDM), more than 200 µM. For `COc1ccc2c(c1NC(=O)NS(=O)(=O)c1cc(C(C)(C)O)co1)CCC2` [4-(2-hydroxypropan-2-yl)-N-((5-methoxy-2,3-dihydro-1H-inden-4-yl)carbamoyl)furan-2-sulfonamide], the IC50 at NLRP3 inflammasome [1] (setting [3]) and on NLRP3 inflammasome [2] (setting [4]) was less than 1 µM each time. As to `Cc1c2c(c(NC(=O)NS(=O)(=O)c3cc(C(C)(C)O)co3)c3c1CCC3)CCC2` [4-(2-hydroxypropan-2-yl)-N-((8-methyl-1,2,3,5,6,7-hexahydro-s-indacen-4-yl)carbamoyl)furan-2-sulfonamide], the IC50 on NLRP3 inflammasome [1] (setting [3]) and on NLRP3 inflammasome [2] (setting [4]) was less than 0.1 µM throughout. Turning to `CC(=O)c1ccc(S(=O)(=O)NC(=O)Nc2c3c(cc4c2CCC4)CCC3)cc1` [4-Acetyl-N-((1,2,3,5,6,7-hexahydro-s-indacen-4-yl)carbamoyl)benzenesulfonamide], the figures for the IC50 on NLRP3 inflammasome [1] (setting [3]) and on NLRP3 inflammasome [2] (setting [4]) were less than 0.1 µM and less than 1 µM, respectively. As to `Nc1ccc(S(=O)(=O)NC(=O)Nc2c3c(cc4c2CCC4)CCC3)cc1` [4-Amino-N-((1,2,3,5,6,7-hexahydro-s-indacen-4-yl)carbamoyl)benzenesulfonamide], the IC50 on NLRP3 inflammasome [1] (setting [3]) was less than 0.1 µM; on NLRP3 inflammasome [2] (setting [4]), less than 1 µM. Regarding `CC(=O)c1ccc(S(=O)(=O)NC(=O)NC2CCCCC2)cc1` [Acetohexamide, reference compound], the IC50 on NLRP3 inflammasome [1] (setting [6]) and at NLRP3 inflammasome [2] (setting [7]) was more than 200 µM each time. On to `CCCNC(=O)NS(=O)(=O)c1ccc(Cl)cc1` [Chlorpropamide, reference compound], for which the IC50 on NLRP3 inflammasome [1] (setting [6]) and at NLRP3 inflammasome [2] (setting [7]) was more than 200 µM in each case.

On to `Cc1ccc(S(=O)(=O)NC(=O)NN2CC3CCCC3C2)cc1` (stereo not shown) [Gliclazide, reference compound], for which the IC50 at NLRP3 inflammasome [1] (setting [6]) and on NLRP3 inflammasome [2] (setting [7]) was more than 200 µM in each case. As to `Cc1cnc(C(=O)NCCc2ccc(S(=O)(=O)NC(=O)NC3CCCCC3)cc2)cn1` [Glipizide, reference compound], the IC50 on NLRP3 inflammasome [1] (setting [6]) and on NLRP3 inflammasome [2] (setting [7]) was more than 200 µM each time. Turning to `COc1ccc2c(c1)C(=O)N(CCc1ccc(S(N)(=O)=O)cc1)C(=O)C2(C)C` [Gliquidone precursor, 4-(2-(7-Methoxy-4,4-dimethyl-1,3-dioxo-3,4-dihydroisoquinolin-2(1H)-yl)ethyl)benzenesulfonamide, reference compound], the IC50 on NLRP3 inflammasome [1] (setting [6]) is more than 10 µM; at NLRP3 inflammasome [2] (setting [7]), more than 200 µM. `COc1cccc(S(=O)(=O)NC(=O)Nc2c3c(cc4c2CCC4)CCC3)c1` [N-(1,2,3,5,6,7-hexahydros-indacen-4-ylcarbamoyl)-3-methoxybenzenesulfonamide]: the IC50 on NLRP3 inflammasome [1] (setting [3]) and at NLRP3 inflammasome [2] (setting [4]) was less than 0.1 µM throughout. As to `CC(C)(O)c1coc(S(=O)(=O)NC(=O)Nc2cccc3c2OCC3)c1` [N-((2,3-dihydrobenzofuran-7-yl)carbamoyl)-4-(2-hydroxypropan-2-yl)furan-2-sulfonamide], the IC50 at NLRP3 inflammasome [1] (setting [3]) is less than 50 µM.

As for `COc1ccc(OC)c(NC(=O)NS(=O)(=O)c2cc(C(C)(C)O)co2)c1` [N-((2,5-dimethoxyphenyl)carbamoyl)-4-(2-hydroxypropan-2-yl)furan-2-sulfonamide], on NLRP3 inflammasome [1] (setting [3]), the IC50 was less than 10 µM. For `CC(C)n1ccc(S(=O)(=O)NC(=O)Nc2nc(C(C)(C)C)cc(C(C)(C)C)n2)n1` [N-((4,6-di-tert-butylpyrimidin-2-yl)carbamoyl)-1-isopropyl-1H-pyrazole-3-sulfonamide], the IC50 on NLRP3 inflammasome [1] (setting [5]) was more than 10 µM. On to `Cc1cc(C)nc(NC(=O)NS(=O)(=O)c2ccn(C(C)C)n2)n1` [N-((4,6-dimethylpyrimidin-2-yl)carbamoyl)-1-isopropyl-1H-pyrazole-3-sulfonamide], for which the IC50 on NLRP3 inflammasome [1] (setting [5]) is more than 10 µM. Regarding `CC(C)(O)c1coc(S(=O)(=O)NC(=O)Nc2c3c(c(Br)c4c2OCC4)CCC3)c1` [N-((4-bromo-3,5,6,7-tetrahydro-2H-indeno[5,6-b]furan-8-yl)carbamoyl)-4-(2-hydroxypropan-2-yl)furan-2-sulfonamide], the IC50 on NLRP3 inflammasome [1] (setting [3]) is less than 0.1 µM. On to `CC(C)(O)c1coc(S(=O)(=O)NC(=O)Nc2c(C3CC3)cc(Cl)cc2C2CC2)c1` [N-((4-chloro-2,6-dicyclopropylphenyl)carbamoyl)-4-(2-hydroxypropan-2-yl)furan-2-sulfonamide], for which the IC50 on NLRP3 inflammasome [1] (setting [3]) was less than 0.1 µM. The same measure, in the same setting: under `CCc1noc2ncc(S(=O)(=O)NC(=O)Nc3c(C(C)C)cc(Cl)cc3C(C)C)cc12` [N-((4-chloro-2,6-diisopropylphenyl)carbamoyl)-3-ethylisoxazolo[5,4-b]pyridine-5-sulfonamide] stands less than 10 µM; under `CC(C)c1cc(Cl)cc(C(C)C)c1NC(=O)NS(=O)(=O)c1ccc2c(c1)CCCC2` [N-((4-chloro-2,6-diisopropylphenyl)carbamoyl)-5,6,7,8-tetrahydronaphthalene-2-sulfonamide], less than 0.1 µM. For `COc1ccc2cc(S(=O)(=O)NC(=O)Nc3c(C(C)C)cc(Cl)cc3C(C)C)ccc2c1` [N-((4-chloro-2,6-diisopropylphenyl)carbamoyl)-6-methoxynaphthalene-2-sulfonamide], the concentration for half-maximal inhibition (IC50) on NLRP3 inflammasome [1] (setting [3]) was less than 0.1 µM. Still for that read-out and setting: to `CC(C)c1cc(Cl)cc(C(C)C)c1NC(=O)NS(=O)(=O)c1cccc2nccnc12` [N-((4-chloro-2,6-diisopropylphenyl)carbamoyl)quinoxaline-5-sulfonamide] belongs less than 0.1 µM. For the molecule `CC(C)c1cc(Cl)cc(C(C)C)c1NC(=O)NS(=O)(=O)c1cnc2ccsc2c1` [N-((4-chloro-2,6-diisopropylphenyl)carbamoyl)thieno[3,2-b]pyridine-6-sulfonamide], on NLRP3 inflammasome [1] (setting [3]), the IC50 was less than 1 µM. Turning to `Cc1cc(Cl)cc(C)c1NC(=O)NS(=O)(=O)c1cc(C(C)(C)O)co1` [N-((4-chloro-2,6-dimethylphenyl)carbamoyl)-4-(2-hydroxypropan-2-yl)furan-2-sulfonamide], the IC50 on NLRP3 inflammasome [1] (setting [3]) was less than 10 µM. As to `COc1cc(Cl)cc(C(F)(F)F)c1NC(=O)NS(=O)(=O)c1ccn(C(C)C)n1` [N-((4-chloro-2-methoxy-6-(trifluoromethyl)phenyl)carbamoyl)-1-isopropyl-1H-pyrazole-3-sulfonamide], on NLRP3 inflammasome [1] (setting [5]), the IC50 was more than 10 µM. Turning to `Cc1cc(Cl)cc(C(F)(F)F)c1NC(=O)NS(=O)(=O)c1cc(C(C)(C)O)co1` [N-((4-chloro-2-methyl-6-(trifluoromethyl)phenyl)carbamoyl)-4-(2-hydroxypropan-2-yl)furan-2-sulfonamide], the IC50 on NLRP3 inflammasome [1] (setting [5]) is more than 10 µM. Turning to `CC(C)(O)c1coc(S(=O)(=O)NC(=O)Nc2c(C3CC3)cc(Cl)c3c2CCC3)c1` [N-((7-chloro-5-cyclopropyl-2,3-dihydro-1H-inden-4-yl)carbamoyl)-4-(2-hydroxypropan-2-yl)furan-2-sulfonamide], on NLRP3 inflammasome [1] (setting [3]), the IC50 is less than 0.1 µM. As to `CC(C)(O)c1coc(S(=O)(=O)NC(=O)Nc2c3ccccc3cc3ccccc23)c1` [N-(anthracen-9-ylcarbamoyl)-4-(2-hydroxypropan-2-yl)furan-2-sulfonamide], the IC50 on NLRP3 inflammasome [1] (setting [3]) is less than 10 µM. On to `CC(C)(O)c1coc(S(=O)(=O)NC(=O)Nc2c3ccoc3cc3ccoc23)c1` [N-(benzo[1,2-b:4,5-b′]difuran-4-ylcarbamoyl)-4-(2-hydroxypropan-2-yl)furan-2-sulfonamide], for which, at NLRP3 inflammasome [1] (setting [3]), the IC50 is less than 0.1 µM. With `Cc1cnc(C(=O)NCCc2ccc(S(=O)(=O)NC(=O)Nc3c4c(cc5c3CCC5)CCC4)cc2)cn1` [drawing 359], the concentration for half-maximal inhibition (IC50) on NLRP3 inflammasome [1] (setting [8]) turned out to be 0.32 µM. Take `O=C(Nc1c2c(cc3c1CCC3)CCC2)NS(=O)(=O)c1ccc([N+](=O)[O-])cc1` [drawing 368]: the IC50 on NLRP3 inflammasome [1] (setting [8]) worked out at 0.043 µM. In the case of `CCOC(=O)c1coc(S(=O)(=O)NC(=O)Nc2c3c(cc4c2CCC4)CCC3)c1` [ethyl 5-(N-((1,2,3,5,6,7-hexahydro-s-indacen-4-yl)carbamoyl)sulfamoyl)furan-3-carboxylate], the IC50 at NLRP3 inflammasome [1] (setting [3]) was less than 1 µM.

For the origin of these results see patent US10538487B2, “Sulfonylureas and related compounds and use of same” (priority 2015, dated 2020).
